How the values were obtained:
human H1 = target: T1, human H1 (Homo sapiens, UniProt P35367); experiment: In vitro histamine H1 receptor cell-based aequorin bioluminescence antagonist assay; conditions: CHO-K1 cells expressing human H1 and aequorin; histamine at EC80; read-out: H1 Antagonist EC50
T1 construct: host or cells: CHO-K1, also expressing mitochondrion-targeted aequorin
Method in brief: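 CHO-K1 cells stably expressing human H1 or H4 plus mitochondrial aequorin (H4 also with Gα16), loaded with 5 μM coelenterazine-h for 4 h at ~21 °C. Compounds preincubated 15 min at room temperature, then histamine at EC80 added.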

human H4 = target: T2, human H4 (Homo sapiens, UniProt Q9H3N8); experiment: In vitro histamine H4 receptor cell-based aequorin bioluminescence antagonist assay; conditions: CHO-K1 cells expressing human H4, aequorin and Gα16; histamine at EC80
T2 construct: host or cells: CHO-K1, also expressing mitochondrion-targeted aequorin and human Gα16
Procedure: In vitro Histamine Receptor Cell-Based Assays
The cell-based assays utilize an aequorin dependent bioluminescence signal. Doubly-transfected, stable CHO—K1 cell lines expressing human H1 or H4, mitochondrion-targeted aequorin, and (H4 only) human G protein Gα16 are obtained from Perkin-Elmer. Cells are maintained in F12 (Ham's) growth medium, containing 10% (vol./vol.) fetal bovine serum, penicillin (100 IU/mL), streptomycin (0.1 mg/mL), zeocin (0.25 mg/mL) and geneticin (0.40 mg/mL). Cell media components are from Invitrogen, Inc. One day prior to assay, the growth medium is replaced with the same, excluding zeocin and geneticin.
For assay preparation, growth medium is aspirated, and cells are rinsed with calcium-free, magnesium-free phosphate-buffered saline, followed by two to three minute incubation in Versene (Invitrogen, Inc.) at 37° C. Assay medium (DMEM:F12 [50:50], phenol-red free, containing 1 mg/mL protease-free bovine serum albumin) is added to collect the released cells, which are then centrifuged. The cell pellet is re-suspended in assay medium, centrifuged once more, and re-suspended in assay medium to a final density of 5×10^6 cells/mL. Coelenterazine-h dye (500 μM in ethanol) is added to a final concentration of 5 μM, and mixed immediately. The conical tube containing the cells is then wrapped with foil to protect the light-sensitive dye. The cells are incubated for four hours further at room temperature (approximately 21° C.) with end-over-end rotation to keep them in suspension.
Just before assay, the dye-loaded cells are diluted to 0.75×10^6 cells/mL (H1 receptor) or 1.5×10^6 cells/mL (H4 receptor) with additional assay medium. Cells are dispensed to 1536 well micro-titer plates at 3 μL/well. To assay receptor antagonism, 60 nl of 100× concentration test compounds in 100% dimethyl sulfoxide (DMSO) are dispensed to the wells, one compound per well, by passive pin transfer, and the plates are incubated for 15 minutes at room temperature. […] The pipette dispenses 3 μL/well of agonist (histamine, at twice the final concentration, where final concentration is a previously determined EC80) in assay medium, with concurrent bioluminescence detection. Agonist activity of test compounds is excluded by separate assays that measure response to test compounds immediately, without added histamine agonist.
CCD image capture on the Lumilux includes a 5 second baseline read prior to agonist addition, and generally a 40 second read per plate after agonist addition. A decrease in bioluminescence signal (measured either as area-under-the-curve, or maximum signal amplitude minus minimum signal amplitude) correlates with receptor antagonism in a dose dependent manner. The negative control is DMSO lacking any test compound. For antagonist assays, the positive controls are diphenhydramine (2-Diphenylmethoxy-N,N-dimethylethylamine, 10 μM final concentration, H1 receptor) or JNJ7777120 (1-[(5-Chloro-1H-indol-2-yl)carbonyl]-4-methyl-piperazine, 10 μM final concentration, H4 receptor). Efficacy is measured as a percentage of positive control activity.

T1 sequence (P35367 whole entry): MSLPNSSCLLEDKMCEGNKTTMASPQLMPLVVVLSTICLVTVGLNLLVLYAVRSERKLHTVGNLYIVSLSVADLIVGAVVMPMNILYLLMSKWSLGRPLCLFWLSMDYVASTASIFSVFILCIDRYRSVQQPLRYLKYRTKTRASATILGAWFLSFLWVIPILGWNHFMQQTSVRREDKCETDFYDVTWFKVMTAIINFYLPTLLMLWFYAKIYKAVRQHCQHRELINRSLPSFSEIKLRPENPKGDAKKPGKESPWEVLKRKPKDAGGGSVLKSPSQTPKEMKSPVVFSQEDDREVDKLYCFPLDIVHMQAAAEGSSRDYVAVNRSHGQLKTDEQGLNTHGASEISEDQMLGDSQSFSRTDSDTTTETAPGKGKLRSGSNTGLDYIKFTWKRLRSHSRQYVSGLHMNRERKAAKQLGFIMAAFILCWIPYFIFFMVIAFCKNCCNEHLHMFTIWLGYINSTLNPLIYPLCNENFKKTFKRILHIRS
T2 sequence (Q9H3N8 whole entry): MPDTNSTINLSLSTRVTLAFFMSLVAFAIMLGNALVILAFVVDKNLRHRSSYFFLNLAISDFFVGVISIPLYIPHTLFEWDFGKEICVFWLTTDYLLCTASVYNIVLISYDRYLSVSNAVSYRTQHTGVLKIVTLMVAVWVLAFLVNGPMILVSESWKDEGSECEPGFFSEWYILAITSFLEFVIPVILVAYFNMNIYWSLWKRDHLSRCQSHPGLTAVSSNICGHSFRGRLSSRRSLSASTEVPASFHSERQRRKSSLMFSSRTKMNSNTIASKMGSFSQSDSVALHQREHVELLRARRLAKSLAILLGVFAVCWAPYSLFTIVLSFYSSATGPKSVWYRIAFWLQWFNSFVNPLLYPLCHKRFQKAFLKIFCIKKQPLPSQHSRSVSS

| Structure (SMILES) | EC50 (human H1) [µM] | EC50 (human H4) [µM] |
| --- | --- | --- |
| Cc1csc2ncnc(N3CCCC3CO)c12 (stereo not drawn) [Example 193, (1-{5-methylthieno[2,3-d]pyrimidin-4-yl}pyrrolidin-2-yl)methanol] | > 10 | > 10 |
| Cc1csc2ncnc(NC3CC(C)(C)NC(C)(C)C3)c12 [Example 150, 2,2,6,6-tetramethyl-N-{5-methylthieno[2,3-d]pyrimidin-4-yl}piperidin-4-amine] | > 10 | > 10 |
| CCCN(C)c1ncnc2scc(C)c12 [Example 182, N,5-dimethyl-N-propylthieno[2,3-d]pyrimidin-4-amine] | > 10 | > 10 |
| Cc1csc2ncnc(N3CCC(C)CC3)c12 [Example 191, 4-methyl-1-{5-methylthieno[2,3-d]pyrimidin-4-yl}piperidine] | > 10 | > 10 |
| CCN(CC)c1ncnc2scc(C)c12 [Example 181, N,N-diethyl-5-methylthieno[2,3-d]pyrimidin-4-amine] | > 10 | > 10 |
| Cc1csc2ncnc(NCC3(O)CCCCC3)c12 [Example 158, 1-[({5-methylthieno[2,3-d]pyrimidin-4-yl}amino)methyl]cyclohexan-1-ol] | > 10 | > 10 |
| Cc1csc2ncnc(N3CCCC(CO)C3)c12 (stereo not drawn) [Example 204, (1-{5-methylthieno[2,3-d]pyrimidin-4-yl}piperidin-3-yl)methanol] | > 10 | > 10 |
| Cc1ccc(Cl)cc1N1CCN(c2ncnc3scc(C)c23)CC1 [Example 275, 1-(5-chloro-2-methylphenyl)-4-{5-methylthieno[2,3-d]pyrimidin-4-yl}piperazine] | > 10 | > 10 |
| CCN(c1ncnc2scc(C)c12)C(Cc1ccccc1)c1ccco1 (stereo not drawn) [Example 282, N-ethyl-N-[1-(furan-2-yl)-2-phenylethyl]-5-methylthieno[2,3-d]pyrimidin-4-amine] | > 10 | > 10 |
| Cc1csc2ncnc(NCc3ccncc3)c12 [Example 86, 5-methyl-N-(pyridin-4-ylmethyl)thieno[2,3-d]pyrimidin-4-amine] | > 10 | > 10 |
| Cc1csc2ncnc(N(CCC#N)Cc3cccnc3)c12 [Example 232, 3-({5-methylthieno[2,3-d]pyrimidin-4-yl}(pyridin-3-ylmethyl)amino)propanenitrile] | > 10 | > 10 |
| CCN(CC)CCN(Cc1ccccc1)c1ncnc2scc(C)c12 [Example 272, N-benzyl-N-[2-(diethylamino)ethyl]-5-methylthieno[2,3-d]pyrimidin-4-amine] | > 10 | > 10 |
| CCCNc1ncnc2scc(C)c12 [Example 54, 5-methyl-N-propylthieno[2,3-d]pyrimidin-4-amine] | > 10 | > 10 |
| CCN(C)c1ncnc2scc(C)c12 [Example 179, N-ethyl-N,5-dimethylthieno[2,3-d]pyrimidin-4-amine] | > 10 | > 10 |
| Cc1csc2ncnc(N(C)CC(O)c3ccccc3)c12 (stereo not drawn) [Example 227, 2-[methyl({5-methylthieno[2,3-d]pyrimidin-4-yl})amino]-1-phenylethan-1-ol] | > 10 | > 10 |
| Cc1csc2ncnc(N3CCC(C(N)=O)CC3)c12 [Example 211, 1-{5-methylthieno[2,3-d]pyrimidin-4-yl}piperidine-4-carboxamide] | > 10 | > 10 |
| Cc1csc2ncnc(NC(C)Cc3ccncc3)c12 (stereo not drawn) [Example 120, 5-methyl-N-[1-(pyridin-4-yl)propan-2-yl]thieno[2,3-d]pyrimidin-4-amine] | > 10 | > 10 |
| Cc1csc2ncnc(N3CCN(c4ccccc4)CC3)c12 [Example 233, 1-{5-methylthieno[2,3-d]pyrimidin-4-yl}-4-phenylpiperazine] | > 10 | > 10 |

| Structure (SMILES) | EC50 (human H1) [µM] | EC50 (human H4) [µM] |
| --- | --- | --- |
| COc1ccc(Nc2ncnc3scc(C)c23)cc1OC [Example 147, N-(3,4-dimethoxyphenyl)-5-methylthieno[2,3-d]pyrimidin-4-amine] | > 10 | > 10 |
| Cc1csc2ncnc(NC(C)CO)c12 (stereo not drawn) [Example 63, 2-({5-methylthieno[2,3-d]pyrimidin-4-yl}amino)propan-1-ol] | > 10 | > 10 |
| Cc1csc2ncnc(NCCN3CCCC3)c12 [Example 92, 5-methyl-N-[2-(pyrrolidin-1-yl)ethyl]thieno[2,3-d]pyrimidin-4-amine] | > 10 | > 10 |
| COc1cc(CN(C)c2ncnc3scc(C)c23)cc(OC)c1OC [Example 276, N,5-dimethyl-N-[(3,4,5-trimethoxyphenyl)methyl]thieno[2,3-d]pyrimidin-4-amine] | > 10 | > 10 |
| COc1cc2c(cc1OC)CN(c1ncnc3scc(C)c13)CC2 [Example 286, 6,7-dimethoxy-2-{5-methylthieno[2,3-d]pyrimidin-4-yl}-1,2,3,4-tetrahydroisoquinoline] | > 10 | > 10 |
| Cc1csc2ncnc(NCc3cccnc3)c12 [Example 84, 5-methyl-N-(pyridin-3-ylmethyl)thieno[2,3-d]pyrimidin-4-amine] | > 10 | > 10 |
| CCN(c1ncnc2scc(C)c12)C1CCCCC1 [Example 210, N-cyclohexyl-N-ethyl-5-methylthieno[2,3-d]pyrimidin-4-amine] | > 10 | > 10 |
| Cc1csc2ncnc(N3CCN(c4ccc(F)cc4F)CC3)c12 [Example 267, 1-(2,4-difluorophenyl)-4-{5-methylthieno[2,3-d]pyrimidin-4-yl}piperazine] | > 10 | > 10 |
| CCN(CC)CCNc1ncnc2scc(C)c12 [Example 94, diethyl[2-({5-methylthieno[2,3-d]pyrimidin-4-yl}amino)ethyl]amine] | > 10 | > 10 |
| Clc1ccc(CCNc2ncnc3[nH]ccc23)cc1 [Example 28, N-(4-chlorophenethyl)-7H-pyrrolo[2,3-d]pyrimidin-4-amine] | > 10 | > 10 |
| Cc1csc2ncnc(N3C(C)CCCC3C)c12 (stereo not drawn) [Example 201, 2,6-dimethyl-1-{5-methylthieno[2,3-d]pyrimidin-4-yl}piperidine] | > 10 | > 10 |
| CC(=O)N[C@H]1CCN(c2ncnc3scc(C)c23)C1 [Example 212, N-[(3S)-1-{5-methylthieno[2,3-d]pyrimidin-4-yl}pyrrolidin-3-yl]acetamide] | > 10 | > 10 |
| Cc1csc2ncnc(N3CCN(c4ccc(C(C)(C)C)cc4)CC3)c12 [Example 284, 1-(4-tert-butylphenyl)-4-{5-methylthieno[2,3-d]pyrimidin-4-yl}piperazine] | > 10 | > 10 |
| CCOC(=O)CC1C(=O)NCCN1c1ncnc2scc(C)c12 (stereo not drawn) [Example 249, ethyl 2-(1-{5-methylthieno[2,3-d]pyrimidin-4-yl}-3-oxopiperazin-2-yl)acetate] | > 10 | > 10 |
| Cc1csc2ncnc(NCc3ccccc3OC(F)(F)F)c12 [Example 172, 5-methyl-N-{[2-(trifluoromethoxy)phenyl]methyl}thieno[2,3-d]pyrimidin-4-amine] | > 10 | > 10 |
| Cc1cccc(N2CCN(c3ncnc4scc(C)c34)CC2)c1C [Example 254, 1-(2,3-dimethylphenyl)-4-{5-methylthieno[2,3-d]pyrimidin-4-yl}piperazine] | > 10 | > 10 |
| COc1ccc(N2CCN(c3ncnc4scc(C)c34)CC2)cc1OC [Example 4, 4-(4-(3,4-dimethoxyphenyl)piperazin-1-yl)-5-methylthieno[2,3-d]pyrimidine] | > 10 | > 10 |
| CCNc1ncnc2scc(C)c12 [Example 50, N-ethyl-5-methylthieno[2,3-d]pyrimidin-4-amine] | > 10 | > 10 |

Reference: patent US20100063047A1 (KALYPSYS, INC., priority 2008, published 2010)
